Calls of active or inactive are those of the source. The rule behind the calls is not given here.
Assays:
Format in all cases: functional, organism-based
[1] = system: Rattus norvegicus; experiment: Compound at 50-200 mg/kg, p.o, dose-dependently inhibited the increase of vascular permeability induced by intracutaneous injection of histamine in rat; inhibited
[2] = system: Rattus norvegicus; experiment: Compound was tested for dose-dependent inhibition in increase of vascular permeability induced by intracutaneous injection of serotonin in rat at 50-200 mg/kg, p.o; Inhibited
[3] = system: Rattus norvegicus; experiment: Compound at 200 mg/kg peroral dose in rat showed significant suppression at second phase; suppressed; design: dose 200 mg/kg
[4] = system: Mus musculus; experiment: Compound at 50-200 mg/kg, p.o, dose-dependently inhibited the increase of vascular permeability induced by intraperitoneal injection of acetic acid in mice; inhibited
[5] = system: Mus musculus; experiment: Compound at 25-200 mg/kg, p.o., dose-dependently inhibited the scratching behavior induced by subcutaneous injection […]; inhibited
[6] = system: Rattus norvegicus; experiment: Compound at 200 mg/kg, p.o., also significantly inhibited the hind paw edema induced by carrageenan at first phase in rat; inhibited; design: dose 200 mg/kg
[7] = system: Rattus norvegicus; experiment: Compound was tested for dose-dependent inhibition in increase of vascular permeability induced by intracutaneous injection of serotonin in rat at 200 mg/kg, p.o.; NI means No inhibition; design: dose 200 mg/kg
[8] = system: Rattus norvegicus; experiment: Compound at 200 mg/kg peroral dose in rat showed tendency to inhibit the second phase; inhibited; design: dose 200 mg/kg

| Compound | Activity [1] | Activity [2] | Activity [3] | Activity [4] | Activity [5] | Activity [6] | Activity [7] | Activity [8] |
| --- | --- | --- | --- | --- | --- | --- | --- | --- |
| C/C=C(\C)C(=O)O[C@H]1[C@H](OC(C)=O)[C@@]2(CO)C(CC1(C)C)C1=CCC3[C@@]4(C)CC[C@H](O[C@@H]5O[C@H](C(=O)O)[C@@H](O[C@@H]6O[C@H](CO)[C@@H](O)[C@H](O)[C@H]6O)[C@H](O)[C@H]5O[C@@H]5O[C@H](CO)[C@@H](O)[C@H](O)[C@H]5O)[C@](C)(CO)C4CC[C@@]3(C)[C@]1(C)C[C@H]2O (stereo not given in full) | inhibited | inhibited | inhibited | inhibited | inhibited | inhibited |  |  |
| CC1(C)CC2C3=CCC4[C@@]5(C)CC[C@H](O[C@@H]6O[C@H](C(=O)O)[C@@H](O[C@@H]7O[C@H](CO)[C@@H](O)[C@H](O)[C@H]7O)[C@H](O)[C@H]6O[C@@H]6OC[C@@H](O)[C@H](O)[C@H]6O)[C@](C)(CO)C5CC[C@@]4(C)[C@]3(C)C[C@@H](O)[C@@]2(CO)[C@@H](O)[C@@H]1O (stereo not given in full) |  |  |  |  |  |  | inactive |  |
| CC1(C)CC2C3=CCC4[C@@]5(C)CC[C@H](O[C@@H]6O[C@H](C(=O)O)[C@@H](O[C@@H]7O[C@H](CO)[C@@H](O)[C@H](O)[C@H]7O)[C@H](O)[C@H]6O[C@@H]6O[C@H](CO)[C@@H](O)[C@H](O)[C@H]6O)[C@](C)(CO)C5CC[C@@]4(C)[C@]3(C)C[C@@H](O)[C@@]2(CO)[C@@H](O)[C@@H]1O (stereo not given in full) |  |  |  |  |  |  | inactive |  |
| C/C=C(\C)C(=O)O[C@H]1[C@H](OC(C)=O)[C@@]2(CO)C(CC1(C)C)C1=CCC3[C@@]4(C)CC[C@H](O[C@@H]5O[C@H](C(=O)O)[C@@H](O[C@@H]6O[C@H](CO)[C@@H](O)[C@H](O)[C@H]6O)[C@H](O)[C@H]5O[C@@H]5OC[C@@H](O)[C@H](O)[C@H]5O)[C@](C)(CO)C4CC[C@@]3(C)[C@]1(C)C[C@H]2O (stereo not given in full) | inhibited | inhibited |  | inhibited | inhibited | inhibited |  | inhibited |
| C/C=C(/C)C(=O)O[C@H]1[C@H](OC(C)=O)[C@@]2(CO)C(CC1(C)C)C1=CCC3[C@@]4(C)CC[C@H](O[C@@H]5O[C@H](C(=O)O)[C@@H](O[C@@H]6O[C@H](CO)[C@@H](O)[C@H](O)[C@H]6O)[C@H](O)[C@H]5O[C@@H]5OC[C@@H](O)[C@H](O)[C@H]5O)[C@](C)(CO)C4CC[C@@]3(C)[C@]1(C)C[C@H]2O (stereo not given in full) | inhibited | inhibited |  | inhibited | inhibited | inhibited |  | inhibited |

Source: ChEMBL document CHEMBL1130300, “Antiinflammatory effects of escins Ia, Ib, IIa, and IIb from horse chestnut, the seeds of Aesculus hippocastanum L” (Bioorg Med Chem Lett, 1997)
